Some test systems named below: OVCAR-5 ovarian; SK-MEL-2 melanoma; HOP-92 NSCLC; SNB-75 CNS; SW-620 colon; ACHN renal; OVCAR-4 ovarian.
Common to all, as to assay: growth of human tumour cells (NCI), 48 h

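Cells were grown in 96-well plates and exposed to each compound for 48 hours at five concentrations; endpoints were interpolated linearly between bracketing concentrations, or set to the highest concentration if not reached. GI50 marks 50% less growth. The concentration for full growth arrest is given as TGI.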

Consider `O=C(N/N=C/c1ccc([N+](=O)[O-])o1)c1ccc(O)cc1`, for which the GI50 in the assay with OVCAR-5 ovarian was 9.32 µM; in the assay with SK-MEL-2 melanoma, 11.3 µM; in the assay with HOP-92 NSCLC, 17.5 µM; in the assay with SNB-75 CNS, 17.4 µM; with SW-620 colon, 3.85 µM; with ACHN renal it was 5.46 µM. Besides, in the assay on OVCAR-4 ovarian, the GI50 is 1.72 µM. Further, the TGI in the assay on OVCAR-5 ovarian was over 100 µM; in the assay with SK-MEL-2 melanoma, over 100 µM; in the assay with HOP-92 NSCLC it was 80.9 µM; in the assay on SNB-75 CNS, 83.2 µM; in the assay with SW-620 colon, over 100 µM; in the assay on ACHN renal, over 100 µM. In the assay on OVCAR-4 ovarian, this compound gave a TGI of 4.51 µM.

Take `COc1ccc(/C=C(/c2ccccc2)[N+](=O)[O-])cc1`: the GI50 in the assay with OVCAR-5 ovarian was 1.62 µM; with SK-MEL-2 melanoma it was 1.92 µM; in the assay on HOP-92 NSCLC, 1.08 µM; in the assay with SNB-75 CNS it was 1.16 µM; with SW-620 colon, 1.34 µM; in the assay on ACHN renal, 1.55 µM. Also, the GI50 with OVCAR-4 ovarian is 1.69 µM. In addition, the TGI was 3.26 µM in the assay with OVCAR-5 ovarian; 4.44 µM in the assay with SK-MEL-2 melanoma; 2.48 µM in the assay with HOP-92 NSCLC; 2.44 µM with SNB-75 CNS; 3.18 µM in the assay with SW-620 colon; 2.9 µM with ACHN renal. In addition, in the assay with OVCAR-4 ovarian, the TGI came to 3.15 µM.

On to `COC(=O)c1cc(/C=C/c2ccc(S(N)(=O)=O)cc2)ccc1O`, for which the GI50 was 59.2 µM in the assay on OVCAR-5 ovarian; 66.8 µM in the assay on SK-MEL-2 melanoma; 25.7 µM with HOP-92 NSCLC; 57 µM in the assay on SNB-75 CNS; 25.7 µM in the assay with SW-620 colon; 29.6 µM in the assay with ACHN renal. Moreover, the GI50 in the assay on OVCAR-4 ovarian was 72.9 µM. For the same compound, the TGI in the assay on OVCAR-5 ovarian, with SK-MEL-2 melanoma, with HOP-92 NSCLC, with SNB-75 CNS, in the assay with SW-620 colon and in the assay with ACHN renal was over 100 µM throughout. The TGI in the assay with OVCAR-4 ovarian was over 100 µM.

With `O=C(CSC(c1ccccc1)c1ccccc1)N/N=C/c1ccco1`, the GI50 in the assay on OVCAR-5 ovarian was 1.97 µM; with SK-MEL-2 melanoma it was 1.4 µM; with HOP-92 NSCLC, 1.44 µM; in the assay with SNB-75 CNS, 17.1 µM; with SW-620 colon it was 2.9 µM; with ACHN renal, 1.82 µM. Moreover, the GI50 with OVCAR-4 ovarian is 1.73 µM. For the same compound, the TGI in the assay with OVCAR-5 ovarian is 5.24 µM; in the assay on SK-MEL-2 melanoma, 3.76 µM; with HOP-92 NSCLC, 2.97 µM; with SNB-75 CNS, 58.1 µM; in the assay on SW-620 colon, over 11.6 µM; with ACHN renal, 3.62 µM. Moreover, the TGI in the assay on OVCAR-4 ovarian was found to be 6.49 µM.

In the case of `CCCCCc1ccc(S(=O)(=O)Nc2cc(-c3csc(NC(C)=O)n3)ccc2N2CCN(C)CC2)cc1`, the GI50 in the assay with OVCAR-5 ovarian is 5 µM; with SK-MEL-2 melanoma, 5.76 µM; in the assay on HOP-92 NSCLC it was 3.68 µM; in the assay on SNB-75 CNS, 3.67 µM; in the assay on SW-620 colon, 1.31 µM; with ACHN renal it was 4.87 µM. Besides, the GI50 in the assay with OVCAR-4 ovarian is 5.44 µM. Further, the TGI was found to be 9.55 µM in the assay with OVCAR-5 ovarian; 12.6 µM in the assay on SK-MEL-2 melanoma; 8.84 µM with HOP-92 NSCLC; 7.98 µM in the assay with SNB-75 CNS; 4.72 µM in the assay on SW-620 colon; 9.24 µM with ACHN renal. This compound gave a TGI in the assay on OVCAR-4 ovarian of 10.3 µM.

As to `Cc1cc(C)n(-c2nnc3n2N=C(c2ccc(-c4ccccc4)cc2)CS3)n1`, the GI50 in the assay with OVCAR-5 ovarian is 5.3 µM; in the assay on SK-MEL-2 melanoma, 2.58 µM; with HOP-92 NSCLC, 1.38 µM; in the assay on SNB-75 CNS it was 3.24 µM; in the assay on SW-620 colon it was 3.41 µM; in the assay on ACHN renal it was 3.98 µM. Also, the GI50 in the assay on OVCAR-4 ovarian is 4.12 µM. In addition, the TGI in the assay with OVCAR-5 ovarian is over 100 µM; in the assay with SK-MEL-2 melanoma it was 7.17 µM; with HOP-92 NSCLC, 5.13 µM; with SNB-75 CNS, 54.8 µM; with SW-620 colon it was over 100 µM; in the assay on ACHN renal, over 100 µM. In the assay with OVCAR-4 ovarian, this compound showed a TGI of over 100 µM.

For `Nc1ccccc1SC1CC(=O)N(c2ccc(Cl)c(Cl)c2)C1=O` (centres undefined), the GI50 is over 100 µM with OVCAR-5 ovarian; 26.9 µM with SK-MEL-2 melanoma; 14.9 µM with HOP-92 NSCLC; 13.3 µM with SNB-75 CNS; 56.5 µM with SW-620 colon; 19.4 µM in the assay on ACHN renal. Moreover, in the assay on OVCAR-4 ovarian, the GI50 is 19.2 µM. For the same compound, the TGI is over 100 µM in the assay on OVCAR-5 ovarian; over 100 µM with SK-MEL-2 melanoma; 42.1 µM in the assay with HOP-92 NSCLC; 34.4 µM in the assay with SNB-75 CNS; over 100 µM in the assay with SW-620 colon; 74.9 µM in the assay with ACHN renal. The compound further returned a TGI in the assay on OVCAR-4 ovarian of over 100 µM.

Regarding `CCCCCCCCCCN1CCC(N2CCCCC2)CC1`, the GI50 was 3.74 µM with OVCAR-5 ovarian; 2.43 µM in the assay with SK-MEL-2 melanoma; 0.763 µM in the assay with HOP-92 NSCLC; 2.06 µM with SNB-75 CNS; 1.92 µM with SW-620 colon; 4.31 µM in the assay with ACHN renal. Besides, the GI50 with OVCAR-4 ovarian was 6.61 µM. Further, the TGI stood at 14.4 µM with OVCAR-5 ovarian; 6.29 µM in the assay with SK-MEL-2 melanoma; 8.5 µM in the assay with HOP-92 NSCLC; 6.12 µM in the assay on SNB-75 CNS; 3.97 µM in the assay on SW-620 colon; 13.7 µM in the assay with ACHN renal. This compound also had a TGI in the assay with OVCAR-4 ovarian of 20.7 µM.

Turning to `S=C1SC2=Nc3ccccc3CN2C2=NCCN12`, the GI50 in the assay with OVCAR-5 ovarian is over 100 µM; with HOP-92 NSCLC, over 100 µM; in the assay with SNB-75 CNS, 17.4 µM; in the assay on SW-620 colon, 39.8 µM; in the assay with ACHN renal, over 100 µM; with OVCAR-4 ovarian it was over 100 µM. Also, the TGI with OVCAR-5 ovarian, in the assay with HOP-92 NSCLC, with SNB-75 CNS, in the assay with SW-620 colon, in the assay on ACHN renal and in the assay on OVCAR-4 ovarian was over 100 µM in each case.

The values above are taken from PubChem BioAssay (NCI).
